# In patent US12281118B2, “Nitrogen-containing fused heterocyclic SHP2 inhibitor compound, preparation method, and use” (SHANGHAI RINGENE BIOPHARMA CO., LTD., priority 2018, dated 2025):
# Where two headings read alike, the source gives them in different places.
# Legend:
# [1] = biological target: SHP1 (Homo sapiens (Human), UniProt P29350); experiment: Inhibitory activity against different phosphatases; assay type: biochemical; conditions: read-out: IC50 against phosphatase SHP1
# Procedure: (§1) Allowing compound solutions (10 μM, 3× dilution at eight gradients) of examples reacted with phosphatases such as SHP1, LMW-PTP, LYP, MKP3, PTP1B, PTPN2, PTPN6, VHR, CDC25A, PTPRR, etc. according to a similar method shown in Test Example 1 to test the inhibitory activity of the compounds on the phosphatases described above.
# [2] = biological target: PTP1B (Homo sapiens (Human), UniProt P18031); experiment: Inhibitory activity against different phosphatases; assay type: biochemical; conditions: read-out: IC50 against phosphatase PTP1B
# Procedure: as §1
# [3] = In vivo pharmacokinetic parameters; design: AUC: unit not given here; conditions: plasma, po; for AUC: read-out: Area under the curve AUC; for bioavailability: read-out: Bioavailability F; for half-life: read-out: Half-life T1/2 (converted); for Cmax: read-out: Maximum plasma concentration Cmax
# Procedure: Dividing 6 SPF-grade laboratory animals into two groups, and preparing the test compound to a suitable solution or suspension; intravenously administering animals in one group, and orally administering animals in the other group. Collecting blood via jugular vein puncture at approximately 0.2 mL/time point for each sample, anticoagulating with sodium heparin, wherein the time points for blood collection is as follows: pre-dose, and 5, 15 and 30 min, and 1, 2, 4, 6, 8, and 24 h post-dose; placing the collected blood samples on ice, separating plasma by centrifugation (centrifugation conditions: 8,000 rpm, 6 min, 2-8° C.), and storing the collected plasma at −80° C. before analysis. Analyzing plasma samples using LC-MS/MS.
# Based on the plasma concentration data of the drug, pharmacokinetic parameters such as AUC0-t, AUC0-∞, MRT0-∞, Cmax, Tmax, T1/2 and Vd of a test sample, as well as mean and standard deviations thereof are calculated using a pharmacokinetic calculation software WinNonlin 5.2 noncompartmental model. In addition, the bioavailability (F) is calculated by the following formula.
# For samples with concentrations below the lower limit of quantification, samples taken before reaching Cmax should be calculated as zero for calculations of the pharmacokinetic parameter, and samples taken at sampling points after reaching Cmax should be calculated as non-quantifiable (BLQ) (specific results are shown in Table 3).
# [4] = system: MV4-11 leukemia cells; experiment: Inhibition of proliferation of MV4-11 leukemia cells (CellTiter-Glo, 72 h); assay type: cell-based; conditions: Homo sapiens, MV4-11, 72 h, read-out: IC50 value, MV4-11 cell proliferation
# Procedure: Specific experimental procedures: 1) At Day 0: Inoculating trypsin-digested cells in 96-well plate and suspending the plate in cell culture medium; measure cell density using an automatic cell counter, diluting the cells with the culture medium to appropriate density, adding 100 μl of cell suspension in the 96-well plate, and incubating a cell-free medium as a control well in a cell incubator with […] at 37° C. overnight; 2) Day 1: Treating test compounds of the cells using a drug for a total of 8 concentrations, and diluting at a 3× concentration, wherein 10 μM is a starting test concentration of the test compounds. […] IC50 values are obtained by a four-parameter regression using software attached to the plate reader (the specific results are shown in Table 2).
# [5] = in vitro; assay type: in vitro ADME; conditions: 1 μM compound
# Procedure: Metabolic stability test: Incubating 150 μL of liver microsomes (final concentration 0.5 mg/mL) containing NADPH (final concentration 1 mM), 1 μM of test compound and a positive control midazolam or a negative control atenolol for metabolic stability, terminating the reaction with acetonitrile containing tinidazole at 0 min, 5 min, 10 min and 30 min, respectively, vortexing for 10 min, centrifuging at 15,000 rmp for 10 min, and injecting 50 μL of supernatant into a 96-well plate. Calculating the metabolic stability of the compounds by determining the relative reduction of a parent drug.
# [6] = biological target: CYP1A2 (Homo sapiens (Human), UniProt P05177); experiment: CYP direct inhibition test (DI test) in human liver microsomes; assay type: in vitro ADME
# Procedure: (§2) Direct inhibition test (DI test): Incubating 100 μL of human liver microsomes (final concentration 0.2 mg/mL) containing NADPH (final concentration 1 mM), 10 μM of compound, a positive inhibitor cocktail (ketoconazole 10 μM, quinidine 10 μM, sulfaphenazole 100 μM, a-naphthoflavone 10 μM, and tranylcypromine 1,000 μM), a negative control (BPS containing 0.1% dimethyl sulfoxide) and a mixed probe substrate (midazolam 10 μM, testosterone 100 μM, dextromethorphan 10 μM, diclofenac 20 μM, phenacetin 100 μM, and mephenytoin 100 μM) for direct inhibition, and terminating the reaction after 20 min of the incubation. Calculating the relative enzyme activity by measuring the relative production of metabolites.
# [7] = biological target: CYP2C19 (Homo sapiens (Human), UniProt P33261); experiment: biochemical; assay type: in vitro ADME
# Procedure: as §2
# [8] = biological target: CYP3A4 (Homo sapiens (Human), UniProt P08684); experiment: biochemical; assay type: in vitro ADME
# Procedure: as §2
# [9] = biological target: CYP2D6 (Homo sapiens (Human), UniProt P10635); experiment: biochemical; assay type: in vitro ADME
# Procedure: as §2
# [10] = biological target: CYP2C9 (Homo sapiens (Human), UniProt P11712); experiment: biochemical; assay type: in vitro ADME
# Procedure: as §2
# [11] = system: MOLM 13 (leukemia cells); experiment: Cell proliferation inhibition, MTT; assay type: cell-based; conditions: Homo sapiens
# Procedure: Incubating cells such as KYSE520 (oesophageal cancer cells), H358 (lung cancer cells), Colo-205 (colorectal cancer cells), MiaPaca-2 (pancreas cancer cells), MOLM 13 (leukemia cells), NCI—H 1666 (lung cancer cells), NCI—H 508 (lung cancer), KATO III (gastric cancer), HEK 293A (normal cells), H3255 (lung cancer), H1975 (lung cancer), PC-9 (lung cancer), A549 (lung cancer), SNU16 (gastric cancer), and H1299 (lung cancer) in a 96-well plate at 100 µl/well and 20,000 cells/mL, and supplementing 10% fetal bovine serum and 1% penicillin/streptomycin sulfate. With 0.5% dimethyl sulfoxide as a blank control, treating the cells in a solution of the test compounds under 3× dilution at an initial concentration of 10 μM in eight gradients, and incubating the plate in an incubator with 5% CO2 for a certain period of time. At the end of the incubation, adding 10 μL of an MTT stock solution (5 mg/mL) to each well. Incubating the plates at 37° C. for 4 hours, and then removing the culture medium. Adding the dimethyl sulfoxide (100 μL) to each well, and then shaking well. Measuring the absorbance of a formazan product at 570 nm on a Thermo Scientific Varioskan Flash multi-mode reader. Fitting dose-response data to a three-parameter nonlinear regression model using GraphPad Prism 6.0 software to obtain IC50 values.
# [12] = monkey, monkeys liver microsomes
# Sequence of CYP1A2 (P05177 whole entry): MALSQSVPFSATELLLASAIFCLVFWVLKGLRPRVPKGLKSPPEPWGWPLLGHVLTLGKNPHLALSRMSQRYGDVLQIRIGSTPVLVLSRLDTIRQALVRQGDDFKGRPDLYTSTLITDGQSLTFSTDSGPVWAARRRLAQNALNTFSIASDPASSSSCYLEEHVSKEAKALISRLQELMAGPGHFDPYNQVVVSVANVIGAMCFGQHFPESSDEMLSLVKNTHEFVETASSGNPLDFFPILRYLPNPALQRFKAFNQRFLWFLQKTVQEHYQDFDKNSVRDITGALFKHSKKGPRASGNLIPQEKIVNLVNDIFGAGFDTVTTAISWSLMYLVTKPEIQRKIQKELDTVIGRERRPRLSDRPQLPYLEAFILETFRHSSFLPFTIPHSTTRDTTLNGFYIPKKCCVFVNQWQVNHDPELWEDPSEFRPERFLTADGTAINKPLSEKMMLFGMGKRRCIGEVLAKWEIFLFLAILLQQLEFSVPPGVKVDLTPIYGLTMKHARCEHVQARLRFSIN
# Sequence of PTP1B (P18031 whole entry, species assumed): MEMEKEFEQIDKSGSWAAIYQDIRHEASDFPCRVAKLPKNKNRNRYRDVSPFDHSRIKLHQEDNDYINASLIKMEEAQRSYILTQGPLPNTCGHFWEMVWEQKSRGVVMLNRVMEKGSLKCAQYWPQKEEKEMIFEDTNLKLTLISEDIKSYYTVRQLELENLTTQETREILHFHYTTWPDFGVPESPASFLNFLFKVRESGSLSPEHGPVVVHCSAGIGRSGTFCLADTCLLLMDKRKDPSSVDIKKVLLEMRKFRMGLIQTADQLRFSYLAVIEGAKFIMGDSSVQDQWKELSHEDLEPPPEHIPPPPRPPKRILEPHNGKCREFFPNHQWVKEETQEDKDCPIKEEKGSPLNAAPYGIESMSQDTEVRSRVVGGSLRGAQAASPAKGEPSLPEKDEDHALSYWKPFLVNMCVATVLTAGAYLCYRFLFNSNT
# Sequence of CYP2D6 (P10635 whole entry): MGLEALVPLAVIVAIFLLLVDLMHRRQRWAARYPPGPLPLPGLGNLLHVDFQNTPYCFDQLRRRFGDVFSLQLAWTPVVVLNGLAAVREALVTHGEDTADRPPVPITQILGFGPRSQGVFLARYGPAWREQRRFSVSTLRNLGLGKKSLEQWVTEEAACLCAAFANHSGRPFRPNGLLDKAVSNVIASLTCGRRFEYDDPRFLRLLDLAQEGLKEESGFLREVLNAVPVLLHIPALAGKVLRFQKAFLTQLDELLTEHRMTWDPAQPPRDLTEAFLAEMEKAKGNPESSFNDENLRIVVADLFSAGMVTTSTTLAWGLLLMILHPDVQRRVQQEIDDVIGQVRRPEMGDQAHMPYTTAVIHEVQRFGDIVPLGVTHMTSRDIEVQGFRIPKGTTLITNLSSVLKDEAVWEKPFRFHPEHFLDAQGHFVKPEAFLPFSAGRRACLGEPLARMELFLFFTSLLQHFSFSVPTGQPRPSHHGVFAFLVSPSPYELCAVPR
# Sequence of CYP2C19 (P33261 whole entry): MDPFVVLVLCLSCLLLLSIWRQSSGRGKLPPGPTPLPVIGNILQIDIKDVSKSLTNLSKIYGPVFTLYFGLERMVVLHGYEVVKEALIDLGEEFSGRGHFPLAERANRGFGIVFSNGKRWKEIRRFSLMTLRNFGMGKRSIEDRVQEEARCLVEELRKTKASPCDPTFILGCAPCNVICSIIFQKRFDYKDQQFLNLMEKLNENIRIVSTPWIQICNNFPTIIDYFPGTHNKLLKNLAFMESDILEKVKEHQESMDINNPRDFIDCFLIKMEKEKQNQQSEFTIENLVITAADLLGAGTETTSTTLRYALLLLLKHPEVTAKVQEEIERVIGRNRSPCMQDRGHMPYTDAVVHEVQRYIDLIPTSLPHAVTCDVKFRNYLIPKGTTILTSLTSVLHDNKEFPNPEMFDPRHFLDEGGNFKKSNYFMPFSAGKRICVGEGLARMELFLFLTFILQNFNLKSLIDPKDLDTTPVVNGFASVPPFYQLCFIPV
# Sequence of CYP3A4 (P08684 whole entry): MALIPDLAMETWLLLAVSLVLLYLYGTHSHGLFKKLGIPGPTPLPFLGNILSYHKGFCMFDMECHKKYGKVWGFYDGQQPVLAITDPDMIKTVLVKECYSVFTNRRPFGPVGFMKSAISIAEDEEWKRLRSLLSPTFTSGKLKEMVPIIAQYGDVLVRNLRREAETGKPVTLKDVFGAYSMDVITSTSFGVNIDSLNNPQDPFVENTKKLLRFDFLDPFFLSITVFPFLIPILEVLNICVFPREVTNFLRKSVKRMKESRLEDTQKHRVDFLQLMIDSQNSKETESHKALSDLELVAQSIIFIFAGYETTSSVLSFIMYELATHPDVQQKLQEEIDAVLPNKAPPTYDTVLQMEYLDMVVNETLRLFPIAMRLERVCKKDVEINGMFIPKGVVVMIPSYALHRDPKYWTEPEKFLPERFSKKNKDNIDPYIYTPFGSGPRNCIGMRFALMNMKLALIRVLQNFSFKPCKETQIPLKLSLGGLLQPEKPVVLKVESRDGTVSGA
# Sequence of SHP1 (P29350 whole entry): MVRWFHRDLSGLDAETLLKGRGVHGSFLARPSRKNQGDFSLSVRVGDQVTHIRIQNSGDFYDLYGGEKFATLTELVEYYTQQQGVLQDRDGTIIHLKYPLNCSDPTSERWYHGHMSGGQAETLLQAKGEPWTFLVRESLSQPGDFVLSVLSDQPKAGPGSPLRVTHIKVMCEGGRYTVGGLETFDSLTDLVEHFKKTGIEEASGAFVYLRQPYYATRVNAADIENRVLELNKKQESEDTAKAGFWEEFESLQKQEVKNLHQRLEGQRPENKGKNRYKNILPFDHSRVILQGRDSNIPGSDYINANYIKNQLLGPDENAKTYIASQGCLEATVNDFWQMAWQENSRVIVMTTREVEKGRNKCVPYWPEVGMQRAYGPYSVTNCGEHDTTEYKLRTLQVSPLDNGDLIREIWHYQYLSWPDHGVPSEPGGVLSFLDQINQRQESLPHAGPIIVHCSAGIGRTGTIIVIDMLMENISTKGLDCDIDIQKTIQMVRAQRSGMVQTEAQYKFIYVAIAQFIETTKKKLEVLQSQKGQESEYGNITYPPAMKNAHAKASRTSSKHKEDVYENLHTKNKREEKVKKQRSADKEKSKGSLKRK
# Sequence of CYP2C9 (P11712 whole entry): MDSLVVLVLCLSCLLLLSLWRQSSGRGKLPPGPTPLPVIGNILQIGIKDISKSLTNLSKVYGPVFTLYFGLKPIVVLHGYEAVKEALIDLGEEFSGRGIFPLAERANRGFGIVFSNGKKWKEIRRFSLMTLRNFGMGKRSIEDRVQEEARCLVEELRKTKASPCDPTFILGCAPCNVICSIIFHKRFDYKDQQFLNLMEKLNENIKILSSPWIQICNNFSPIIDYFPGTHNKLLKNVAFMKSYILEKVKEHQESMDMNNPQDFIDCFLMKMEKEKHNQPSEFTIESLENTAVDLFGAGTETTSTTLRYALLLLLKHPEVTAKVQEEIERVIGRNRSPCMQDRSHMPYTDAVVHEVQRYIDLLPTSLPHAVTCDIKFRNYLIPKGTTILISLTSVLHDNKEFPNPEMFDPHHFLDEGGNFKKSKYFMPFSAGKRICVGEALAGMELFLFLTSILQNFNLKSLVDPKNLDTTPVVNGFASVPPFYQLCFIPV
Compound,IC50 [1],IC50 [2],"AUC ([3]; Mouse, 5 mg/kg)","bioavailability ([3]; Mouse, 5 mg/kg)","half-life ([3]; Mouse, 5 mg/kg)","Cmax ([3]; Mouse, 5 mg/kg)",IC50 [4],"half-life at 1 μM ([5]; dog, dogs liver microsomes)",half-life at 1 μM ([5]; human liver microsomes),"half-life at 1 μM [5, 12]","half-life at 1 μM ([5]; mouse, mice liver microsomes)","half-life at 1 μM ([5]; rat, rats liver microsomes)",IC50 [6],IC50 [7],IC50 [8],IC50 [9],IC50 [10],IC50 [11],other results
"Nc1nccc(Sc2c(N)nc(N3CCC4(CC3)Cc3ccccc3[C@H]4N)n3ccnc23)c1Cl [Example 4, (S)-1′-(7-amino-8-((2-amino-3-chloropyridin-4-yl)thio)imidazo [1,2-c]pyrimidin-5-yl)-1,3-dihydrospiro [indene-2,4′-piperidine]-1-amine]",> 0.5 µM,> 0.5 µM,557,20%,10.9 h,79 nM,0.0047 µM,> 1 h,> 1 h,> 1 h,> 1 h,> 1 h,> 25 µM,> 25 µM,> 25 µM,> 25 µM,> 25 µM,< 0.1 µM,
"Cc1nc(N2CCC3(CC2)Cc2ccccc2[C@H]3N)n2ccnc2c1Sc1ccnc(N)c1Cl [Example 1, (S)-1′-(8-((2-amino-3-chloropyridin-4-yl)thio)-7-methylimidazo [1,2-c]pyrimidin-5-yl)-1,3-dihydrospiro [indene-2,4′-piperidine]-1-amine]",> 0.5 µM,> 0.5 µM,5840,61%,11.8 h,306 nM,0.011 µM,> 1 h,> 1 h,> 1 h,> 1 h,> 1 h,> 25 µM,> 25 µM,> 25 µM,> 25 µM,> 25 µM,< 0.1 µM,"AUC ([3]; Beagle Dog, 5 mg/kg): 18200; bioavailability ([3]; Beagle Dog, 5 mg/kg): 162%; half-life ([3]; Beagle Dog, 5 mg/kg): 10.9 h; Cmax ([3]; Beagle Dog, 5 mg/kg): 907 nM; bioavailability ([3]; Rat, 5 g/kg (so in the source)): 64%; half-life ([3]; Rat, 5 g/kg (so in the source)): 22.3 h; Cmax ([3]; Rat, 5 g/kg (so in the source)): 211 nM; AUC ([3]; Rat, (so in the source)): 3540"
